How the values were obtained:
[1] = biological target: human sodium channel NaV1.2 (Homo sapiens, UniProt Q99250); assay: NaV1.2 inhibition, automated patch-clamp (Q-Patch HTX), slow inactivated state (state C); assay type: cell-based; conditions: hNaV1.2 CHO cells, slow inactivated state; for IC50: read-out: NaV1.2 IC50; for inhibition at 1 µM: 1 μM compound, read-out: NaV1.2 (% inh), 1 μM; for inhibition at 10 µM: 10 μM compound, read-out: NaV1.2 (% inh), 10 μM
Method in brief: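 IC50 comes from a least-squares fit of percent inhibition, relative to vehicle, of current in the slow-inactivated state. That state is reached by a 10 s prepulse to −50 mV, then 15 ms at −90 mV, then a 5 ms test pulse to 0 mV. Human NaV1.2 in stable CHO K-1 cells, held at −100 mV, automated patch clamp.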

[2] = biological target: T1, recombinant human serotonin receptor 5-HT2A (Homo sapiens, UniProt P28223); assay: 5-HT2A antagonist Ca2+ assay in CHO-K1 cells (method A aequorin luminescence / method B FLIPR fluorescence); assay type: cell-based; conditions: antagonist mode vs EC80 of reference agonist, method A or B, read-out: 5HT2A IC50
T1 construct: expressed in transfected cells; method B: loaded with Ca2+ dye
T1 sequence (P28223 whole entry): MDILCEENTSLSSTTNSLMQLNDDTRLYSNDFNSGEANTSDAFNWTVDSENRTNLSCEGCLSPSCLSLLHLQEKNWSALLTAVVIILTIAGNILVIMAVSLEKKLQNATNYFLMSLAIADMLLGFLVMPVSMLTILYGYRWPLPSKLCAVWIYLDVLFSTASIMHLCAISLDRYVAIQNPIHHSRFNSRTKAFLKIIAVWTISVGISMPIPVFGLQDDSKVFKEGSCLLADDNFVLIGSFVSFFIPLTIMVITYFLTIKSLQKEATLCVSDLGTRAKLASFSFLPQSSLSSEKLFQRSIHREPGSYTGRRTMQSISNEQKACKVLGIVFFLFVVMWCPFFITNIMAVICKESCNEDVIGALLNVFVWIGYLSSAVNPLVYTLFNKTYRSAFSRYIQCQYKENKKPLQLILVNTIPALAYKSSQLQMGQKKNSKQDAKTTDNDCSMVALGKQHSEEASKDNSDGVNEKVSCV
Method in brief: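 IC50 was obtained by nonlinear regression of percent inhibition of the EC80 agonist Ca2+ response in CHO-K1 cells stably expressing human 5-HT2A. The readout was aequorin luminescence with agonist injected 15 min after compound (A), or Ca2+-dye fluorescence on FLIPR with serotonin as agonist (B).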

human sodium channel NaV1.2, sequence (Q99250 whole entry): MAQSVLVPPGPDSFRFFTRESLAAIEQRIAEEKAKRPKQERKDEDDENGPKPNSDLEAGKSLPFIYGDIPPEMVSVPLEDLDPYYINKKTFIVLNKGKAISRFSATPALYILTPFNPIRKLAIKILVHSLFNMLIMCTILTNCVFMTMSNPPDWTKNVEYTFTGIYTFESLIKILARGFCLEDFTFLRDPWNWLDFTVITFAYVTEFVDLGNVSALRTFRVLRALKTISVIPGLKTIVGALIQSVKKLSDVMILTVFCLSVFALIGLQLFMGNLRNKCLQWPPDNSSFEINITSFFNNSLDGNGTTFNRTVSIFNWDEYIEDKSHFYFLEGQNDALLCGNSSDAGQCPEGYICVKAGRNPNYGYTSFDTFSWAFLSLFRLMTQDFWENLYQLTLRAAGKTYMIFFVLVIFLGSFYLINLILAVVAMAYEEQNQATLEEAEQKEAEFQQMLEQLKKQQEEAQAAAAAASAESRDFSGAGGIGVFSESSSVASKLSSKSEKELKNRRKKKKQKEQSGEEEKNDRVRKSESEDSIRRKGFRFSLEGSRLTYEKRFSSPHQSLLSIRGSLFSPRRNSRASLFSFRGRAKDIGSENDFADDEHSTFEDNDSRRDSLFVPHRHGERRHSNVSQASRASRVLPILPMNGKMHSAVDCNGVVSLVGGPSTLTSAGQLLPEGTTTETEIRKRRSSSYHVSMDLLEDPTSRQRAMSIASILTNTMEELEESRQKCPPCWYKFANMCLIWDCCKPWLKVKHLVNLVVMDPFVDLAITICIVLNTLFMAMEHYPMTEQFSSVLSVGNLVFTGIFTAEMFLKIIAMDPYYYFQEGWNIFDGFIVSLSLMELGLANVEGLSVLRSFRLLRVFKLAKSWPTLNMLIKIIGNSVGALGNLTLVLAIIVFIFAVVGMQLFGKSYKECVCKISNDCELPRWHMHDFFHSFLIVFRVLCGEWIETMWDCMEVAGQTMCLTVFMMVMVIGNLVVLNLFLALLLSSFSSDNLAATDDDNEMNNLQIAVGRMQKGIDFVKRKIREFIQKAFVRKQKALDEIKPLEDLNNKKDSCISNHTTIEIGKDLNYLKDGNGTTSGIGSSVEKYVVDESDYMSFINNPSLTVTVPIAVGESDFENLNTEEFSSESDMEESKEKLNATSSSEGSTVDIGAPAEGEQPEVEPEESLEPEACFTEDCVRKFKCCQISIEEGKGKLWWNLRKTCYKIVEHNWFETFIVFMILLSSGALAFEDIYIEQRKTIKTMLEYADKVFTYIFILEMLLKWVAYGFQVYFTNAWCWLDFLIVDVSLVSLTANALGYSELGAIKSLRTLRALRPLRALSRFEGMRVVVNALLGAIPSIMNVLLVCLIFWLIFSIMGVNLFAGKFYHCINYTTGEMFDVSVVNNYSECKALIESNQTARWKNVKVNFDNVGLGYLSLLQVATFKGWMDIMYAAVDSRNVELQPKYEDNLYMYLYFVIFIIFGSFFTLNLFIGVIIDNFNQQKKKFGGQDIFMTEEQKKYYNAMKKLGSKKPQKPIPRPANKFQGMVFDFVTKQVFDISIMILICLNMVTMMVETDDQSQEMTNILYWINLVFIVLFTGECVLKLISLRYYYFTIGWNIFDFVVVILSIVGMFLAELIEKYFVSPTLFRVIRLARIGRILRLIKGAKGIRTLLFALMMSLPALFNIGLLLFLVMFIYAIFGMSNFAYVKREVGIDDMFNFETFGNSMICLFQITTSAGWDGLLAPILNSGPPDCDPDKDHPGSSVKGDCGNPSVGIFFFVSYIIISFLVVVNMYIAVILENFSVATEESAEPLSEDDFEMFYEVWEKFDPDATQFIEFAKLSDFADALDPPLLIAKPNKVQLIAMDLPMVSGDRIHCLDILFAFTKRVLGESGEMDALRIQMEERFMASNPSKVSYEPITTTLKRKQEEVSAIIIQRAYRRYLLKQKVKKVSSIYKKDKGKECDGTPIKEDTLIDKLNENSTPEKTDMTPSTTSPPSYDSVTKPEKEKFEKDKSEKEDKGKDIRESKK

## c1ccc(OC2CCN(CCC3COCc4ccccc43)CC2)cc1 (stereo not shown) [Example 179, 1-(2-(isochroman-4-yl)ethyl)-4-phenoxypiperidine]
[1]
  IC50: 610 nM
[2]
  IC50: 60 nM

## COc1ccccc1OC1CCN(CC2CCc3ccccc32)CC1(C)C (stereo not shown) [Example 103, 1-((2,3-dihydro-1H-inden-1-yl)methyl)-4-(2-methoxyphenoxy)-3,3-dimethylpiperidine]
[1]
  IC50: 3130 nM
[2]
  IC50: 220 nM

## OC(CO[C@@H]1CCc2ccccc21)CN1CCC(Oc2ccc(F)cc2)CC1 (stereo partly drawn) [Example 236, 1-(((R)-2,3-dihydro-1H-inden-1-yl)oxy)-3-(4-(4-fluorophenoxy)piperidin-1-yl)propan-2-ol]
[1]
  IC50: 550 nM
[2]
  IC50: 350 nM

## N#Cc1ccc2c(c1)CCC2CN1CCC(Oc2ccc(F)cc2)CC1 (stereo not shown) [Example 121]
[1]
  IC50: 2090 nM
[2]
  IC50: 70 nM

## c1ccc(OC2CCN(CC3CCc4ccccc43)CC2)cc1 (stereo not shown) [Example 106, 1-((2,3-dihydro-1H-inden-1-yl)methyl)-4-phenoxypiperidine]
[1]
  IC50: > 10000 nM
[2]
  IC50: 10 nM

## OC(COC1CCCc2ccccc21)CN1CCN(Cc2ccccc2)CC1 (stereo not shown) [Example 83, 1-(4-benzylpiperazin-1-yl)-3-((1,2,3,4-tetrahydronaphthalen-1-yl)oxy) propan-2-ol]
[1]
  IC50: 20 nM
[2]
  IC50: 2870 nM

## CCC(=O)c1ccc(OCC(O)CN2CCN(c3ccccc3)CC2)cc1 (stereo not shown) [Example 88, 1-(4-(2-hydroxy-3-(4-phenylpiperazin-1-yl)propoxy)phenyl)propan-1-one]
[1]
  IC50: 31200 nM
[2]
  IC50: 580 nM

## O=C1c2ccccc2CCCN1CCN1CCC(Oc2ccc(F)cc2)CC1 [Example 208, 2-(2-(4-(4-fluorophenoxy)piperidin-1-yl)ethyl)-2,3,4,5-tetrahydro-1H-benzo[c]azepin-1-one]
[1]
  IC50: 1210 nM
[2]
  IC50: 10 nM

## Fc1ccc(O[C@@H]2CCN(CC3COCc4ccccc43)C2)cc1 (stereo partly drawn) [Example 11, (3R)-3-(4-fluorophenoxy)-1-(isochroman-4-ylmethyl)pyrrolidine]
[1]
  inhibition at 1 µM: 29%
[2]
  IC50: 590 nM

## N#Cc1ccc(OCCN2CCN(c3nsc4ccccc34)CC2)cc1 [Example 67, 4-(2-(4-(benzo[d]isothiazol-3-yl)piperazin-1-yl)ethoxy)benzomtnle]
[1]
  inhibition at 10 µM: 85%
[2]
  IC50: 10 nM

## Fc1ccc(N2CCC3(CCN(CC4Cc5ccccc5C4)C3)C2)cc1 (stereo not shown) [Example 340, 2-((2,3-dihydro-1H-inden-2-yl)methyl)-7-(4-fluorophenyl)-2,7-diazaspiro[4.4]nonane]
[1]
  inhibition at 1 µM: 25%
[2]
  IC50: 100 nM

## Cc1cccc(N2CCN(CC3COCc4ccccc43)CC2)c1C (stereo not shown) [Example 57, 1-(2,3-dimethylphenyl)-4-(isochroman-4-ylmethyl)piperazine]
[1]
  inhibition at 10 µM: 83%
[2]
  IC50: 100 nM

## Fc1ccc(O[C@@H]2CCCN(CC3CCc4ccccc43)C2)cc1 (stereo partly drawn) [Example 253, (3R)-1-((2,3-dihydro-1H-inden-1-yl)methyl)-3-(4-fluorophenoxy) piperidine]
[1]
  inhibition at 1 µM: 21%
[2]
  IC50: 1170 nM

## Fc1ccc(OC2CCCN(CC3COc4ccccc43)CC2)cc1 (stereo not shown) [Example 272, 1-((2,3-dihydrobenzofuran-3-yl)methyl)-4-(4-fluorophenoxy)azepane]
[1]
  IC50: 830 nM
[2]
  IC50: 10 nM

## Fc1ccc(OC2CCN(CCC3CCOCC3)CC2)cc1 [Example 170, 4-(4-fluorophenoxy)-1-(2-(tetrahydro-2H-pyran-4-yl)ethyl)piperidine]
[1]
  inhibition at 1 µM: 5%
[2]
  IC50: 1110 nM

## COc1cccc(CN2CCC3(CCc4ccccc4O3)CC2)c1 [Example 417, 1′-(3-methoxybenzyl) spiro[chromane-2,4′-piperidine]]
[1]
  inhibition at 10 µM: 94%
[2]
  IC50: 690 nM

## OC(COC1CCCCC1)CN1CC[C@H]2C[C@@H]1CN2c1ccccc1 (stereo partly drawn) [Example 325, 1-(cyclohexyloxy)-3-((1R,5S)-6-phenyl-2,6-diazabicyclo[3.2.1]octan-2-yl)propan-2-ol]
[1]
  IC50: 220 nM
[2]
  IC50: 250 nM

## COc1ccc2c(c1)C(CN1CCC(Oc3cccc(C)n3)CC1)CC2 (stereo not shown) [Example 124, 2-((1-((6-methoxy-2,3-dihydro-1H-inden-1-yl)methyl)piperidin-4-yl)oxy)-6-methylpyridine]
[1]
  inhibition at 1 µM: 34%
[2]
  IC50: 120 nM

## CC1(C)Oc2ccccc2C1CN1CCC(Oc2ccccc2)CC1 (stereo not shown) [Example 131, 1-((2,2-dimethyl-2,3-dihydrobenzofuran-3-yl)methyl)-4-phenoxypiperidine]
[1]
  inhibition at 1 µM: -1%
[2]
  IC50: 290 nM

## O=C1c2ccccc2CCN1CCN1CCC(Oc2ccc(F)cc2)CC1 [Example 200, 2-(2-(4-(4-fluorophenoxy)piperidin-1-yl)ethyl)-3,4-dihydroisoquinolin-1(2H)-one]
[1]
  inhibition at 10 µM: 73%
[2]
  IC50: 10 nM

## OC(COC1CCCCC1)CN1CCC2(CCN(c3ccccc3)C2)C1 (stereo not shown) [Example 344, 1-(cyclohexyloxy)-3-(7-phenyl-2,7-diazaspiro[4.4]nonan-2-yl)propan-2-ol]
[1]
  IC50: 430 nM
[2]
  IC50: 110 nM

## COc1ccc2c(c1)C(CN1CCC(OCc3ccccc3F)CC1)CC2 (stereo not shown) [Example 243, 4-((2-fluorobenzyl)oxy)-1-((6-methoxy-2,3-dihydro-1H-inden-1-yl)methyl)piperidine]
[1]
  IC50: 100 nM
[2]
  IC50: 360 nM

## Fc1ccc(OC2CCN(CC3Cc4ccccc4C3)CC2)cc1 [Example 154, 1-((2,3-dihydro-1H-inden-2-yl)methyl)-4-(4-fluorophenoxy)piperidine]
[1]
  inhibition at 1 µM: 35%
[2]
  IC50: 170 nM

## OC(COC1CCCCC1)CN1CCN(c2ccccc2)CC1 (stereo not shown) [Example 74, 1-(cyclohexyloxy)-3-(4-phenylpiperazin-1-yl)propan-2-ol]
[1]
  IC50: 50800 nM
[2]
  IC50: 60 nM

## OC(COC1CCCCC1)CN1C[C@H]2CC[C@@H](C1)N2c1ccccc1 (stereo partly drawn) [Example 299, 1-(cyclohexyloxy)-3-((1R,5S)-8-phenyl-3,8-diazabicyclo[3.2.1]octan-3-yl)propan-2-ol]
[1]
  IC50: 3570 nM
[2]
  IC50: 1720 nM

## OC(CO[C@H]1CCc2ccccc21)CN1CCC(Oc2ccc(F)cc2)CC1 (stereo partly drawn) [Example 235, 1-(((S)-2,3-dihydro-1H-inden-1-yl)oxy)-3-(4-(4-fluorophenoxy)piperidin-1-yl)propan-2-ol]
[1]
  IC50: 340 nM
[2]
  IC50: 190 nM

## CN1CCN(CC2CCc3ccccc32)CC1COc1ccc(F)cc1 (stereo not shown) [Example 270, 4-((2,3-dihydro-1H-inden-1-yl)methyl)-2-((4-fluorophenoxy)methyl)-1-methylpiperazine]
[1]
  inhibition at 1 µM: 56%
[2]
  IC50: 110 nM

## c1ccc(CC2CN(CC3CCc4ccccc43)CCO2)cc1 (stereo not shown) [Example 251, 2-benzyl-4-((2,3-dihydro-1H-inden-1-yl)methyl)morpholine]
[1]
  inhibition at 1 µM: 23%
[2]
  IC50: 370 nM

## c1ccc2c(c1)CCC1(CCN(CCC3Cc4cccnc4C3)CC1)O2 (stereo not shown) [Example 419, 1′-(2-(6,7-dihydro-5H-cyclopenta[b]pyridin-6-yl)ethyl)spiro[chromane-2,4′-piperidine]]
[1]
  inhibition at 1 µM: 6%
[2]
  IC50: 220 nM

## O=C1c2ccccc2CCN1CCN1CCC(Oc2cccc(F)c2)CC1 [Example 193, 2-(2-(4-(3-fluorophenoxy)piperidin-1-yl)ethyl)-3,4-dihydroisoquinolin-1(2H)-one]
[1]
  inhibition at 10 µM: 66%
[2]
  IC50: 330 nM

## O=C1c2cc(Cl)ccc2CCCN1CCN1CCC(Oc2ccc(F)cc2)CC1 [Example 209, 8-chloro-2-(2-(4-(4-fluorophenoxy)piperidin-1-yl)ethyl)-2,3,4,5-tetrahydro-1H-benzo[c]azepin-1-one]
[1]
  IC50: 270 nM
[2]
  IC50: 20 nM

## COc1ccc2c(c1)C(CN1CCC(Oc3ccccn3)CC1)CC2 (stereo not shown) [Example 95, 2-((1-((6-methoxy-2,3-dihydro-1H-inden-1-yl)methyl)piperidin-4-yl)oxy)pyridine]
[1]
  inhibition at 1 µM: 9%
[2]
  IC50: 150 nM

## COc1cccc(OC2CCN(CCN3CCCc4ccccc4C3=O)CC2)c1 [Example 205, 2-(2-(4-(3-methoxyphenoxy)piperidin-1-yl)ethyl)-2,3,4,5-tetrahydro-1H-benzo[c]azepin-1-one]
[1]
  inhibition at 10 µM: 76%
[2]
  IC50: 450 nM

## c1ccc([C@@H]2COC3(CCN(C[C@H]4CCc5ccccc54)CC3)C2)cc1 (single isomer, unassigned) [Compound 379]
[1]
  IC50: 290 nM
[2]
  IC50: 40 nM

## OC(COC1CCCCC1)CN1C[C@H]2C[C@@H]1CN(Cc1ccccc1)C2 (stereo partly drawn) [Example 318, 1-((1S,5R)-3-benzyl-3,6-diazabicyclo[3.2.1]octan-6-yl)-3-(cyclohexyloxy)propan-2-ol]
[1]
  inhibition at 10 µM: 48%
[2]
  IC50: > 5300 nM

## O=C1CCc2ccccc2N1CCN1CCC(Oc2ccc(F)cc2)CC1 [Example 190, 1-(2-(4-(4-fluorophenoxy)piperidin-1-yl)ethyl)-3,4-dihydroquinolin-2(1H)-one]
[1]
  inhibition at 1 µM: 25%
[2]
  IC50: 10 nM

## Fc1ccc(OC2CCN(CCC3CCCOC3)CC2)cc1 (stereo not shown) [Example 169, 4-(4-fluorophenoxy)-1-(2-(tetrahydro-2H-pyran-3-yl)ethyl)piperidine]
[1]
  inhibition at 1 µM: 10%
[2]
  IC50: 280 nM

## O[C@H](CO[C@@H]1CCc2ccccc21)CN1CC[C@@H](Oc2ccc(F)cc2)C1 [Example 46, (S)-1-(((R)-2,3-dihydro-1H-inden-1-yl)oxy)-3-((R)-3-(4-fluorophenoxy)pyrrolidin-1-yl)propan-2-ol]
[1]
  inhibition at 1 µM: 41%
[2]
  IC50: 30 nM

— patent publication US11186564B2, “Dual NAV1.2/5HT2a inhibitors for treating CNS disorders” (Sunovion Pharmaceuticals Inc., priority 2016, dated 2021)
